Results taken from patent US11267811B2, “Small molecule inhibitors of galectin-3” (BRISTOL-MYERS SQUIBB COMPANY, priority 2017, dated 2022).
Read-outs that look alike come from different tables or passages of the source.

Target: His-tagged recombinant human Gal-3 (hGal-3) (Homo sapiens (Human), UniProt P17931)
Test: Gal-3 HTRF assay (His-tagged hGal-3 binding to B-ASF);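 further: compounds preincubated 30 min with hGal-3, then 1 h with B-ASF, detection via terbium anti-His antibody and streptavidin d2. Control with B-ASF counts as full signal, omitting B-ASF as background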
[1] = HTRF, hGal-3 15 nM, B-ASF 15 nM, read-out: hGal-3 IC50

His-tagged recombinant human Gal-3 (hGal-3), sequence (P17931 whole entry): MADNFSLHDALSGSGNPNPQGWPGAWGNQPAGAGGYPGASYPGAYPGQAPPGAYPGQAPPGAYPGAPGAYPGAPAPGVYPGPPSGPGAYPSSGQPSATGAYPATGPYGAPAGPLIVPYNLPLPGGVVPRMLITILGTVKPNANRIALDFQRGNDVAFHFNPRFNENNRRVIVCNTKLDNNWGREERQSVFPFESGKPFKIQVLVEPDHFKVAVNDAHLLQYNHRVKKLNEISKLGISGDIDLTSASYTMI

Structure (SMILES)	IC50 [1] [nM]	other results
Cc1cccc(-n2cnnc2[C@@H]2O[C@H](CO)[C@H](O)[C@H](n3cc(-c4cc(F)c(F)c(F)c4)nn3)[C@H]2O)c1 [Example 155]	150	
Cc1nc2ccc(-n3ncnc3[C@@H]3O[C@H](CO)[C@H](O)[C@H](n4cc(-c5ccc(CC#N)c(F)c5)nn4)[C@H]3O)cc2s1 [Example 231]		IC50 (read-out: hGal3 IC50): 390 nM
Cc1nc2ccc(-n3ncnc3[C@@H]3O[C@H](CO)[C@H](O)[C@H](n4cc(-c5ccc(Cl)c(Cl)c5)nn4)[C@H]3O)cc2s1 [Example 211]		IC50 (read-out: hGal3 IC50): 60 nM
CC(=O)Nc1ccc(-n2cnnc2[C@@H]2O[C@H](CO)[C@H](O)[C@H](n3cc(-c4cc(F)c(F)c(F)c4)nn3)[C@H]2O)cc1O [Example 159]	840	
Cc1nc([C@@H]2O[C@H](CO)[C@H](O)[C@H](n3cc(-c4ccc(Br)c(F)c4)nn3)[C@H]2O)n(-c2cc(Cl)cc3cccnc23)n1 [Example A12]		IC50 (read-out: hGal IC50): 46 nM
Cc1nc([C@@H]2O[C@H](CO)[C@H](O)[C@H](n3cc(-c4cccc(F)c4)nn3)[C@H]2O)oc1CO [Example 300, (2R,3R,4S,5R,6R)-4-(4-(3-fluorophenyl)-1H-1,2,3-triazol-1-yl)-2-(hydroxymethyl)-6-(5-(hydroxymethyl)-4-methyloxazol-2-yl)tetrahydro-2H-pyran-3,5-diol]	9430	
O=C(O)c1ccc(-n2ncnc2[C@@H]2O[C@H](CO)[C@H](O)[C@H](n3cc(-c4cc(F)c(F)c(F)c4)nn3)[C@H]2O)cc1 [Example 32]	590	
Cc1nc2ccc(-n3c(C)nnc3[C@H]3C[C@@H](n4cc(-c5cc(F)c(F)c(F)c5)nn4)[C@@H](O)[C@@H](CO)O3)cc2s1 [Example 280, (2R,3R,4R,6R)-2-(hydroxymethyl)-6-(5-methyl-4-(2-methylbenzo[d]thiazol-6-yl)-4H-1,2,4-triazol-3-yl)-4-(4-(3,4,5-trifluorophenyl)-1H-1,2,3-triazol-1-yl)tetrahydro-2H-pyran-3-ol]	70	
Cc1nc([C@@H]2O[C@H](CO)[C@H](O)[C@H](n3cc(-c4cc(F)c(Cl)c(F)c4)nn3)[C@H]2O)n(-c2cc(Cl)cnc2C(F)(F)F)n1 [Example A10]		IC50 (read-out: hGal IC50): 29 nM
Cc1nc([C@@H]2O[C@H](CO)[C@H](O)[C@H](n3cc(-c4cc(F)c5ncccc5c4)nn3)[C@H]2O)n(-c2cc(Cl)ccc2C(F)(F)F)n1 [Example A68]		IC50 (read-out: hGal IC50): 154 nM
COc1cc(-c2cn([C@H]3[C@@H](O)[C@@H](CO)O[C@@H](c4ncnn4-c4ccc5nc(C)sc5c4)[C@@H]3O)nn2)cc(F)c1F [Example 232]		IC50 (read-out: hGal3 IC50): 40 nM
Cc1nc([C@@H]2O[C@H](CO)[C@H](O)[C@H](n3cc(-c4ncc(Cl)cc4Cl)nn3)[C@H]2O)n(-c2cc(Cl)ccc2C(F)(F)F)n1 [Example A62]		IC50 (read-out: hGal IC50): 172 nM
CCO[C@@H]1[C@@H](n2cc(-c3cc(F)c(F)c(F)c3)nn2)[C@@H](O)[C@@H](CO)O[C@H]1c1ncnn1-c1cccc(Cl)c1 [Example 55]	157	
Cc1ccc(Cl)cc1-n1ncnc1[C@H]1C[C@@H](n2cc(-c3cc(F)c(F)c(F)c3)nn2)[C@@H](O)[C@@H](CO)O1 [Example 178]	250	
Cc1nc2cc(Cl)c(-n3ncnc3[C@H]3C[C@@H](n4cc(-c5cc(F)c(F)c(F)c5)nn4)[C@@H](O)[C@@H](CO)O3)cc2s1 [Example 182]	120	
Cc1nc([C@@H]2O[C@H](CO)[C@H](O)[C@H](n3cc(-c4ncc(Cl)cc4F)nn3)[C@H]2O)n(-c2cc(Cl)ccc2C(F)(F)F)n1 [Example A59]		IC50 (read-out: hGal IC50): 158 nM

Structure (SMILES)	IC50 [1] [nM]	other results
O=C1CCc2cc(-n3cnnc3[C@@H]3O[C@H](CO)[C@H](O)[C@H](n4cc(-c5cc(F)c(F)c(F)c5)nn4)[C@H]3O)ccc2N1 [Example 121]	260	
Cc1nc2ccc(-n3c(C)nnc3[C@@H]3O[C@H](CO)[C@H](O)[C@H](n4cc(-c5cc(F)c(F)c(F)c5)nn4)[C@H]3O)cc2s1 [Example 273, (2R,3R,4R,5R,6S)-2-(hydroxymethyl)-6-(5-methyl-4-(2-methylbenzo[d]thiazol-6-yl)-4H-1,2,4-triazol-3-yl)-4-(4-(3,4,5-trifluorophenyl)-1H-1,2,3-triazol-1-yl)tetrahydro-2H-pyran-3,5-diol]	40	
Cc1nc([C@@H]2O[C@H](CO)[C@H](O)[C@H](n3cc(-c4cc(F)c(Cl)c(F)c4)nn3)[C@H]2O)n(-c2cc(Cl)ccc2Br)n1 [Example A13]		IC50 (read-out: hGal IC50): 22 nM
COc1ccc(Cl)cc1-n1nc(C)nc1[C@H]1C[C@@H](n2cc(-c3cc(F)c(F)c(F)c3)nn2)[C@@H](O)[C@@H](CO)O1 [Example 183, (2R,3R,4R,6R)-6-(1-(5-chloro-2-methoxyphenyl)-3-methyl-1H-1,2,4-triazol-5-yl)-2-(hydroxymethyl)-4-(4-(3,4,5-trifluorophenyl)-1H-1,2,3-triazol-1-yl)tetrahydro-2H-pyran-3-ol]	160	
Cc1nc([C@@H]2O[C@H](CO)[C@H](O)[C@H](n3cc(-c4ccc(Br)c(F)c4)nn3)[C@H]2O)n(-c2cc(Cl)cc3ccncc23)n1 [Example A39]		IC50 (read-out: hGal IC50): 161 nM
Cc1nc2ccc(-n3cnnc3[C@@H]3O[C@H](CO)[C@H](O)[C@H](n4cc(-c5ccc(Cl)c(F)c5)nn4)[C@H]3O)cc2s1 [Example 303]		IC50 (read-out: hGal3 IC50): 23 nM
Cc1nc2ccc(-n3ncnc3[C@@H]3O[C@H](CO)[C@H](O)[C@H](n4cc(-c5ccccc5)nn4)[C@H]3O)cc2s1 [Example 214]		IC50 (read-out: hGal3 IC50): 600 nM
OC[C@H]1O[C@@H](n2nncc2-c2cccc(Cl)c2)[C@H](F)[C@@H](n2cc(-c3cc(F)c(F)c(F)c3)nn2)[C@H]1O [Example 18, (2R,3R,4S,5R,6R)-6-(5-(3-chlorophenyl)-1H-1,2,3-triazol-1-yl)-5-fluoro-2-(hydroxymethyl)-4-(4-(3,4,5-trifluorophenyl)-1H-1,2,3-triazol-1-yl)tetrahydro-2H-pyran-3-ol]	1040	
OC[C@H]1O[C@@H](c2nncn2-c2ccccc2Cl)[C@H](O)[C@@H](n2cc(-c3cc(F)c(F)c(F)c3)nn2)[C@H]1O [Example 89]	460	
Cc1cccc(-n2ncnc2[C@@H]2O[C@H](CO)[C@H](O)[C@H](n3cc(-c4cc(F)c(F)c(F)c4)nn3)[C@H]2O)c1 [Example 26]	230	
Cc1nc2ccc(-n3ncnc3[C@@H]3O[C@H](CO)[C@H](O)[C@H](n4cc(-c5cc(F)c(C#N)cc5C)nn4)[C@H]3O)cc2s1 [Example 235]		IC50 (read-out: hGal3 IC50): 390 nM
COc1ccc(-n2cnnc2[C@@H]2O[C@H](CO)[C@H](O)[C@H](n3cc(-c4cc(F)c(F)c(F)c4)nn3)[C@H]2O)cc1Cl [Example 145]	230	
CO[C@@H]1[C@@H](n2cc(-c3cc(F)c(F)c(F)c3)nn2)[C@@H](O)[C@@H](CO)O[C@H]1c1ncnn1-c1ccc2ncsc2c1 [Example 192]	40	
COc1cc(F)c(F)cc1-c1cn([C@H]2[C@@H](O)[C@@H](CO)O[C@@H](c3ncnn3-c3ccc4nc(C)sc4c3)[C@@H]2O)nn1 [Example 233]		IC50 (read-out: hGal3 IC50): 240 nM
OC[C@H]1O[C@@H](c2nncn2-c2ccc(F)c(Cl)c2)[C@H](O)[C@@H](n2cc(-c3cc(F)c(F)c(F)c3)nn2)[C@H]1O [Example 156]	50	

Further lines, with some results ahead:

IC50 [1] [nM]	Structure (SMILES)	other results
60	Cc1nc2ccc(-n3ncnc3[C@@H]3O[C@H](CO)[C@H](O)[C@H](n4cc(-c5cc(F)c(N6CC(O)C6)c(F)c5)nn4)[C@H]3O)cc2s1 [Example 242]	
500	Cc1nc2cc(-n3cnnc3[C@@H]3O[C@H](CO)[C@H](O)[C@H](n4cc(-c5cc(F)c(F)c(F)c5)nn4)[C@H]3O)ccc2n1C [Example 168]	
170	Cc1nc([C@H]2C[C@@H](n3cc(-c4cc(F)c(F)c(F)c4)nn3)[C@@H](O)[C@@H](CO)O2)n(-c2cc(Cl)ccc2F)n1 [Example 185]	
130	OC[C@H]1O[C@@H](c2nncn2-c2cc(Cl)cc3cccnc23)[C@H](OCC(F)F)[C@@H](n2cc(-c3ccc(Br)c(F)c3)nn2)[C@H]1O [Example 323, (2R,3R,4S,5R,6S)-4-(4-(4-bromo-3-fluorophenyl)-1H-1,2,3-triazol-1-yl)-6-(4-(6-chloroquinolin-8-yl)-4H-1,2,4-triazol-3-yl)-5-(2,2-difluoroethoxy)-2-(hydroxymethyl)tetrahydro-2H-pyran-3-ol]	
110	OC[C@H]1O[C@@H](c2ncnn2-c2cc(Cl)cc(Cl)c2)[C@H](O)[C@@H](n2cc(-c3cc(F)c(F)c(F)c3)nn2)[C@H]1O [Example 41]	
330	OC[C@H]1O[C@@H](c2nncn2-c2ccc(Cl)cc2)[C@H](O)[C@@H](n2cc(-c3cc(F)c(F)c(F)c3)nn2)[C@H]1O [Example 75]	
120	CSc1nnc([C@@H]2O[C@H](CO)[C@H](O)[C@H](n3cc(-c4cc(F)c(F)c(F)c4)nn3)[C@H]2O)n1-c1ccc(Cl)c(Cl)c1 [Example 278, (2S,3R,4R,5R,6R)-2-(4-(3,4-dichlorophenyl)-5-(methylthio)-4H-1,2,4-triazol-3-yl)-6-(hydroxymethyl)-4-(4-(3,4,5-trifluorophenyl)-1H-1,2,3-triazol-1-yl)tetrahydro-2H-pyran-3,5-diol]	
53	Cc1nc2ccc(-n3cnnc3[C@@H]3O[C@H](CO)[C@H](O)[C@H](n4cc(-c5cc(F)c(Br)c(F)c5)nn4)[C@H]3OCC(F)F)cc2s1 [Example 321, (2R,3R,4S,5R,6S)-4-(4-(4-bromo-3,5-difluorophenyl)-1H-1,2,3-triazol-1-yl)-5-(2,2-difluoroethoxy)-2-(hydroxymethyl)-6-(4-(2-methylbenzo[d]thiazol-6-yl)-4H-1,2,4-triazol-3-yl)tetrahydro-2H-pyran-3-ol]	
10000	OC[C@H]1O[C@@H](n2ccc3cc(Cl)ccc32)[C@H](O)[C@@H](n2cc(-c3cc(F)c(F)c(F)c3)nn2)[C@H]1O [Example 291, (2R,3R,4S,5R,6R)-2-(5-chloro-1H-indol-1-yl)-6-(hydroxymethyl)-4-(4-(3,4,5-trifluorophenyl)-1H-1,2,3-triazol-1-yl)tetrahydro-2H-pyran-3,5-diol]	
930	OC[C@H]1O[C@@H](c2nncn2-c2cccc3cc[nH]c23)[C@H](O)[C@@H](n2cc(-c3cc(F)c(F)c(F)c3)nn2)[C@H]1O [Example 165]	
